Test results published in patent US6878747B2, “Systemic formulations containing beta-carotene and derivatives thereof” (priority 2001, dated 2005).

Columns and labels:
[1] = Soluabilization in THF, Example 12; assay type: physicochemical; details: results approximate
Procedure: All materials and sources were the same as in Example 11.The only additions were the use of 4.3 ml glass shell vials from Electron Microscopy Sciences, 10 ml glass centrifuge tubes from Fisher, and a 1.25 ml glass Hamilton syringe from Fisher.
All of a retinoic acid (1 gram) ampule was poured into a 10 ml glass centrifuge tube and stoppered with a silicon stopper. 7 ml of THF was added to the tube and then shaken by hand. This was performed twice.
All of a 1 gram ampule was poured into a 4.3 ml shell vial and stoppered with a silicon stopper. Using a 1.25 ml Hamilton syringe, 1.0 ml of THF was added to the vial and then shaken by hand. It soluabilized completely.
10 microliters THF from a Hamilton syringe was added to a ampule containing 1 mg of 9-cis retinoic acid. It appeared that complete soluability was achieved.
A 500 mg ampule of retinal was emptied into a 2 ml shell vial, and was completely soluabilized with hand shaking in 0.5 ml of THF.

[2] = Soluabilization in THF, Example 11; assay type: physicochemical; details: hand shaking, results approximate
Procedure: All experimental substances (retinol, retinoic acid, 9-cis retinoic acid, retinal) were from Sigma (St. Louis, Mo.). All experimental substances were provided in sealed ampules.
The solvent, Tetrahydrofuran (stabilized with BHT) was also from Sigma.^1
^1 In the soluabilization experiments described in Examples 11 and 12 a small amount of yellow material appeared on the bottom of the stopper. In addition, since THF is somewhat volatile, the results are approximate.
2 ml shell vials from Electron Microscopy Sciences (Fort Washington, Pa.) Hamilton glass syringes (100 microliter, 250 microliter, 500 microliter) were from Fisher Scientific (Pittsburgh, Pa.). Silicone stoppers and other glassware were also from Fisher Scientific.
All of a retinoic acid ampule (100 mg ) was poured into a 2 ml shell vial and stoppered with a silicon stopper. Using a 500 microliter Hamilton syringe, 500 microliters of THF was added to the vial and then shaken by hand.
a. 25 mg ampule of retinol was poured into a 2 ml shell vial and it soluabilized completely in 250 microliters of THF.
b. 100 mg ampule of retinol was poured into a vial and it soluabilized completely in 0.5 ml of THF.
c. 100 mg ampule of retinol was poured into a vial and it soluabilized completely in 0.1 ml THF.
20 microliters THF from a Hamilton syringe was added to an ampule containing 1 mg of 9-cis retinoic acid. It appeared that complete soluability was achieved.
A 100 mg ampule of retinal was emptied into a 2 ml shell vial, and was completely soluabilized with hand shaking in 100 microliters of THF.

[3] = test system: intra-abdominal sepsis in a rat model; details: dietary supplementation; beta-carotene 90 mg/kg; cited from earlier work
[4] = Maximum concentration of beta-carotene dissolving in THF; assay type: physicochemical
Procedure: The formulation broadly comprises from about 0.1 to about 9.3 mg and preferably from about 1 to about 6 mg of beta-carotene per ml of tetrahydrofuran. The maximum concentration of beta-carotene capable of dissolving in THF is 9.3 mg/ml. Solubility problems arise above this concentration of beta-carotene. Beta-carotene and derivatives thereof for use in the present invention is commercially available from Sigma Chemical Co. or Fisher Scientific Co.

human hepatocytes = assay: Absorption of beta-carotene in THF in human hepatocytes; assay type: in vitro ADME; details: 10 μM beta-carotene, 0.05% THF, 24 hours incubation; three samples
Procedure: The following experiment was performed three times to determine the absorption of beta-carotene in THF in human hepatocytes.
Beta-carotene was dissolved in a solution containing 99.9% (w/w) tetrahydrofuran (THF) with 0.025% (w/w) butylated hydroxytoluene (BHT) to obtain a 2000× (20 mM) stock solution. While the incubation media was rapidly stirred, the stock solution was added to create a final 1× dosing solution containing 10 μM beta-carotene and 0.05% THF.
Hepatocytes were isolated and cryopreserved according to the methods described in Li, A. P., et al., Isolation and culturing of hepatocytes from human liver, J. Tiss. Culture Methods, 14:139-146(1992); Li rat and human hepatocytes as multicellular spheroids, In Vitro Cell. Dev. Biol., 28A:673-677 (1992); and Loretz, L. J. et al., Promutagen activation by freshly isolated and cryopreserved rat hepatocytes, Environ. Mol. Mutag., 12(3):335-341. Portions of liver tissue were processed into hepatocytes by collagenase-based digestion of connective tissue, followed by manual and mechanical separation and washing with media. Isolated hepatocytes were counted to determine yield, and viability was measured using Trypan Blue™ exclusion. The viability of the cells was 90%. The cells were resuspended in the plating media described above at a density of 0.7×10^6 cells/mL. […]

[5] = test system: human melanoma cell cultures; assay: Beta-carotene treatment of melanoma cell cultures, Example 9; assay type: cell-based; details: beta-carotene 33 mg/ml in medium, 0.5% THF, 7 days
Procedure: Experiment: Beta-carotene in tetrahydrofuran (THF) was added to McCoy's 5A modified medium at a concentration of 33 mg/ml with a final concentration of 0.5% THF. This supplemented medium was added to Leighton tubes (containing melanoma cells) after removal of un-supplemented medium and was replaced every 2 days during the 7 day experimental period. At the end of 7 days, the cultures were fixed in methanol and the cover slips were Giemsa stained.

[6] = test system: human melanoma cell cultures; assay: Guanosine then beta-carotene treatment of melanoma cell cultures, Example 10; assay type: cell-based; details: 7 days
Procedure: Guanosine was added to McCoy's 5A modified medium at a concentration of 3 mg/ml. This supplemented medium was added to Leighton tubes after removal of an non-supplemented medium and was replaced every 2 days for 7 days. Beta-carotene in THF was added to McCoy's 5A modified medium at a concentration of 33 mg/ml with a final concentration of 0.5% THF. This supplemented medium was added to the Leighton tubes after removal of guanosine supplemented medium and was replaced every 2 days for an additional 7 day experimental period. At the end of 14 days, the cultures were fixed in methanol and the cover slips were Giemsa stained.

[7] = test system: right calf of a health professional; details: in vivo
From the text: Retinol, retinal, and retinoic acid, were each soluabilized in THF as described above and used as follows. A fingertip amount of each (e.g. retinoic acid, retinol retinal?) was rubbed into the right calf of a health professional.

[8] = test system: human with male pattern baldness; assay: Topical use in human male pattern baldness; assay type: in vivo; details: in THF, applied daily to thinning vertex; within 4 months
From the text: A human with male pattern baldness applies retinol in THF daily to their thinning vertex.

[9] = beta-carotene 33 mg/ml, 0.5% THF, after 7 days of guanosine 3 mg/ml

## CC1=C(/C=C/C(C)=C\C=C\C(C)=C\C(=O)O)C(C)(C)CCC1 [9-cis retinoic acid]
[1]
  soluability in THF: about 100 mg/ml THF
[2]
  soluability in THF: at least 50 mg/ml THF

## CC1=C(/C=C/C(C)=C/C=C/C(C)=C/C=C/C=C(C)/C=C/C=C(C)/C=C/C2=C(C)CCCC2(C)C)C(C)(C)CCC1 [beta-carotene]
[3]
  protective effect on intra-abdominal sepsis: lesser effect
[4]
  maximum concentration of beta-carotene capable of dissolving in THF: 9.3 mg/mL
Human hepatocytes
  detection of beta-carotene in the cells (dark regions, light microscope): presence of beta-carotene in the cells
[5]
  cell death in culture compared with control cultures: a large segment of the starting population died
[5]; Giemsa stained
  morphology of the remaining cells: most had triangular morphology and a large nucleus, consistent with neural cells, or were fusiform in shape
[6]; [9]
  cell death in culture: did not cause the extensive cell death
  morphology of the surviving cells: most of those had a neuronal morphology

## Nc1nc2c(ncn2[C@@H]2O[C@H](CO)[C@@H](O)[C@H]2O)c(=O)[nH]1 [guanosine, Guanosine]
[6]; guanosine 3 mg/ml in medium
  phenotypic changes in the overall cell population: many cells with an increased nuclear to cytoplasmic ratio

## CC1=C(/C=C/C(C)=C/C=C/C(C)=C/C=O)C(C)(C)CCC1 [retinal]
[1]
  soluability in THF: about 1 gm/ml THF
[2]
  soluability in THF: about 1 gm/ml THF
[7]
  signs of toxicity, topically or systemically: no signs of toxicity

## CC1=C(/C=C/C(C)=C/C=C/C(C)=C/C(=O)O)C(C)(C)CCC1 [retinoic acid]
[7]
  signs of toxicity, topically or systemically: no signs of toxicity

## CC1=C(/C=C/C(C)=C/C=C/C(C)=C/CO)C(C)(C)CCC1 [retinol]
[1]
  soluability in THF: about 1 gm/ml THF
[8]
  new hair growth (hair counts, investigator and patient assessment): significant new hair growth
[2]
  soluability in THF: about 1 gm/ml THF
[7]
  signs of toxicity, topically or systemically: no signs of toxicity

## Vitamin A
[3]
  protective effect on intra-abdominal sepsis: significant protective effect
